The assay has as its target recombinant human GST-Syk (Homo sapiens (Human), UniProt P43405). Put plainly: Homogeneous Time-Resolved Fluorescence (HTRF) assay for the recombinant human Syk enzyme. The following applies: recombinant human GST-Syk 5 pM, ATP 25 μM, read-out: rhSyk IC50. The assay is classed as biochemical. In short, it runs like this: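 HTRF read-out of phosphorylation of a biotinylated Syk-site peptide (250 nM final) by a GST-tagged human Syk fusion. Reaction initiated with ATP at 25 μM final plus 5 mM magnesium final. Compound potency taken from inhibition of human Syk activity.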

Take `Cc1cc(Nc2cc(C(F)(F)F)ccn2)nc(-c2ccc(NC3CCN(C(=O)c4ccc(C(N)=O)cc4)CC3)nc2)c1` [Example 4-23]: the half-inhibitory concentration (IC50) is 3 nM.
On to `Cc1cc(Nc2cc(C(F)(F)F)ccn2)nc(-c2ccc(NC3CCN(C(=O)c4ccc5ccccc5n4)CC3)nc2)c1` [Example 4-24], for which the half-inhibitory concentration (IC50) turned out to be 7 nM.
As for `Cc1cc(Nc2cc(C(F)(F)F)ccn2)nc(-c2ccc(NC3CCN(C(=O)COc4ccccc4-c4ccccc4)CC3)nc2)c1` [Example 4-25], the half-inhibitory concentration (IC50) was 209 nM.
For `Cc1cc(Nc2cc(C(F)(F)F)ccn2)nc(-c2ccc(NC3CCN(C(=O)c4ccccc4Cn4cncn4)CC3)nc2)c1` [Example 4-26], the IC50 came to 7 nM.
On to `Cc1cc(Nc2cc(C(F)(F)F)ccn2)nc(-c2ccc(NC3CCN(C(=O)c4cccc(C(N)=O)c4)CC3)nc2)c1` [Example 4-27], for which the IC50 came to 3 nM.
The figure for `Cc1cc(Nc2cc(C(F)(F)F)ccn2)nc(-c2ccc(NC3CCN(C(=O)c4cn[nH]c4-c4ccccc4)CC3)nc2)c1` [Example 4-28] is 27 nM; for `Cc1cc(Nc2cc(C(F)(F)F)ccn2)nc(-c2ccc(NC3CCN(C(=O)c4cccc(Cn5cccn5)c4)CC3)nc2)c1` [Example 4-29] it is 7 nM.
Regarding `Cc1cc(Nc2cc(C(F)(F)F)ccn2)nc(-c2ccc(NC3CCN(C(=O)c4nn(-c5ccccc5)nc4C)CC3)nc2)c1` [Example 4-30], the 50% inhibitory concentration (IC50) was 137 nM.
The figure for `Cc1cc(Nc2cc(C(F)(F)F)ccn2)nc(-c2ccc(NC3CCN(C(=O)c4ccnn4-c4ccccc4)CC3)nc2)c1` [Example 4-32] is 54 nM; for `Cc1cc(Nc2cc(C(F)(F)F)ccn2)nc(-c2ccc(NC3CCN(C(=O)c4cccc5[nH]ccc45)CC3)nc2)c1` [Example 4-33] it is 7 nM.
The figure for `Cc1cc(Nc2cc(C(F)(F)F)ccn2)nc(-c2ccc(NC3CCN(C(=O)Cc4ccc5[nH]c(C)c(C)c5c4)CC3)nc2)c1` [Example 4-34] is 8 nM; for `Cc1cc(Nc2cc(C(F)(F)F)ccn2)nc(-c2ccc(NC3CCN(C(=O)c4nccc5ncccc45)CC3)nc2)c1` [Example 4-35] it is 3 nM; for `Cc1cc(Nc2cc(C(F)(F)F)ccn2)nc(-c2ccc(NC3CCN(C(=O)c4cccc(-n5cccn5)c4)CC3)nc2)c1` [Example 4-36] it is 10 nM.
Consider `Cc1cc(Nc2cc(C(F)(F)F)ccn2)nc(-c2ccc(NC3CCN(C(=O)c4cnn5cccnc45)CC3)nc2)c1` [Example 4-37], for which the IC50 amounted to 1 nM.
For `Cc1cc(Nc2cc(C(F)(F)F)ccn2)nc(-c2ccc(NC3CCN(C(=O)c4ccccc4N(C)C)CC3)nc2)c1` [Example 4-38] the value was 40 nM; for `Cc1cc(Nc2cc(C(F)(F)F)ccn2)nc(-c2ccc(NC3CCN(C(=O)c4cccc5cc(O)ccc45)CC3)nc2)c1` [Example 4-39], 7 nM.
The figure for `Cc1cc(Nc2cc(C(F)(F)F)ccn2)nc(-c2ccc(NC3CCN(C(=O)c4cccc(C(F)(F)F)c4)CC3)nc2)c1` [Example 4-40] is 102 nM.
In the case of `Cc1cc(Nc2cc(C(F)(F)F)ccn2)nc(-c2ccc(NC3CCN(C(=O)Cc4ccc5ccccc5c4)CC3)nc2)c1` [Example 4-41], the IC50 stood at 58 nM.
As for `Cc1cc(Nc2cc(C(F)(F)F)ccn2)nc(-c2ccc(NC3CCN(C(=O)c4cccc(N(C)C)c4)CC3)nc2)c1` [Example 4-42], the 50% inhibitory concentration (IC50) turned out to be 4 nM.
For `Cc1cc(Nc2cc(C(F)(F)F)ccn2)nc(-c2ccc(NC3CCN(C(=O)c4cccc5c4C(=O)c4ccccc4-5)CC3)nc2)c1` [Example 4-43] the value was 29 nM.
For `Cc1cc(Nc2cc(C(F)(F)F)ccn2)nc(-c2ccc(NC3CCN(C(=O)c4ccc5cccnc5n4)CC3)nc2)c1` [Example 4-44] the value was below 0.5 nM; for `Cc1cc(Nc2cc(C(F)(F)F)ccn2)nc(-c2ccc(NC3CCN(C(=O)c4cccc5cccnc45)CC3)nc2)c1` [Example 4-45], 7 nM; for `Cc1cc(Nc2cc(C(F)(F)F)ccn2)nc(-c2ccc(NC3CCN(C(=O)c4cccc(S(C)(=O)=O)c4)CC3)nc2)c1` [Example 4-46], 4 nM.
For `Cc1cc(Nc2cc(C(F)(F)F)ccn2)nc(-c2ccc(NC3CCN(C(=O)c4cc(-n5cccn5)ccc4Cl)CC3)nc2)c1` [Example 4-48] the value was 30 nM; for `Cc1cc(Nc2cc(C(F)(F)F)ccn2)nc(-c2ccc(NC3CCN(C(=O)c4ccc5ccccc5c4)CC3)nc2)c1` [Example 4-49], 19 nM; for `Cc1cc(Nc2cc(C(F)(F)F)ccn2)nc(-c2ccc(NC3CCN(C(=O)c4cccc(Oc5ccccc5)c4)CC3)nc2)c1` [Example 4-50], 97 nM.
On to `Cc1cc(Nc2cc(C(F)(F)F)ccn2)nc(-c2ccc(NC3CCN(C(=O)c4cnc5ccc(C)cc5c4)CC3)nc2)c1` [Example 4-51], for which the concentration for half-maximal inhibition (IC50) was found to be 10 nM.
For `Cc1cc(Nc2cc(C(F)(F)F)ccn2)nc(-c2ccc(NC3CCN(C(=O)Cc4cccc5ccccc45)CC3)nc2)c1` [Example 4-52] the value was 53 nM; for `COc1ccc2cc(CC(=O)N3CCC(Nc4ccc(-c5cc(C)cc(Nc6cc(C(F)(F)F)ccn6)n5)cn4)CC3)ccc2c1` [Example 4-53], 78 nM.
With `Cc1cc(Nc2cc(C(F)(F)F)ccn2)nc(-c2ccc(NC3CCN(C(=O)c4cccc5c4Cc4ccccc4-5)CC3)nc2)c1` [Example 4-54], the 50% inhibitory concentration (IC50) came to 149 nM.
In the case of `COc1ccc2cc(C(C)C(=O)N3CCC(Nc4ccc(-c5cc(C)cc(Nc6cc(C(F)(F)F)ccn6)n5)cn4)CC3)ccc2c1` (stereo not shown) [Example 4-55], the concentration for half-maximal inhibition (IC50) was found to be 223 nM.
For `CCc1ccc(OCC(=O)N2CCC(Nc3ccc(-c4cc(C)cc(Nc5cc(C(F)(F)F)ccn5)n4)cn3)CC2)cc1` [Example 4-56] the value was 39 nM; for `Cc1cc(Nc2cc(C(F)(F)F)ccn2)nc(-c2ccc(NC3CCN(C(=O)Cc4ccc(Oc5ccccc5)cc4)CC3)nc2)c1` [Example 4-57], 175 nM.
On to `CC(=O)Nc1cccc(C(=O)N2CCC(Nc3ccc(-c4cc(C)cc(Nc5cc(C(F)(F)F)ccn5)n4)cn3)CC2)c1` [Example 4-58], for which the IC50 came out at 4 nM.
The figure for `Cc1cc(Nc2cc(C(F)(F)F)ccn2)nc(-c2ccc(NC3CCN(C(=O)c4cccc5ccccc45)CC3)nc2)c1` [Example 4-59] is 61 nM; for `Cc1cc(Nc2cc(C(F)(F)F)ccn2)nc(-c2ccc(NC3CCN(C(=O)c4cn(Cc5ccccc5)c5ccccc45)CC3)nc2)c1` [Example 4-60] it is 422 nM; for `Cc1cc(Nc2cc(C(F)(F)F)ccn2)nc(-c2ccc(NC3CCN(C(=O)c4cc5ccccc5cn4)CC3)nc2)c1` [Example 4-61] it is 4 nM.
For the compound `Cc1cc(Nc2cc(C(F)(F)F)ccn2)nc(-c2ccc(NC3CCN(C(=O)c4cccc(-c5cc[nH]n5)c4)CC3)nc2)c1` [Example 4-62], the IC50 came to 15 nM.
As to `Cc1cc(Nc2cc(C(F)(F)F)ccn2)nc(-c2ccc(NC3CCN(C(=O)c4cnc5ccccn45)CC3)nc2)c1` [Example 4-63], the IC50 is 7 nM.
In the case of `COc1c(C(=O)N2CCC(Nc3ccc(-c4cc(C)cc(Nc5cc(C(F)(F)F)ccn5)n4)cn3)CC2)ccc2ccccc12` [Example 4-64], the 50% inhibitory concentration (IC50) was 83 nM.
The figure for `Cc1cc(Nc2cc(C(F)(F)F)ccn2)nc(-c2ccc(NC3CCN(C(=O)c4nccc5ccccc45)CC3)nc2)c1` [Example 4-65] is 20 nM; for `Cc1cc(Nc2cc(C(F)(F)F)ccn2)nc(-c2ccc(NC3CCN(C(=O)c4ccnc5ccccc45)CC3)nc2)c1` [Example 4-66] it is 24 nM; for `Cc1cc(Nc2cc(C(F)(F)F)ccn2)nc(-c2ccc(NC3CCN(C(=O)c4cccc5c4oc4ccccc45)CC3)nc2)c1` [Example 4-67] it is 178 nM.
The figure for `Cc1cc(Nc2cc(C(F)(F)F)ccn2)nc(-c2ccc(NC3CCN(C(=O)Cc4ccccn4)CC3)nc2)c1` [Example 4-68] is 2 nM; for `Cc1cc(Nc2cc(C(F)(F)F)ccn2)nc(-c2ccc(NC3CCN(C(=O)Cc4ccc(-c5ccccc5)cc4)CC3)nc2)c1` [Example 4-69] it is 138 nM.
The figure for `Cc1cc(Nc2cc(C(F)(F)F)ccn2)nc(-c2ccc(NC3CCN(C(=O)Cc4ccccc4C#N)CC3)nc2)c1` [Example 4-70] is 6 nM; for `Cc1cc(Nc2cc(C(F)(F)F)ccn2)nc(-c2ccc(NC3CCN(C(=O)c4ccccc4Cl)CC3)nc2)c1` [Example 4-71] it is 21 nM.
As for `Cc1cc(Nc2cc(C(F)(F)F)ccn2)nc(-c2ccc(NC3CCN(C(=O)c4ccc(C(F)(F)F)cc4)CC3)nc2)c1` [Example 4-72], the IC50 turned out to be 56 nM.
For `Cc1cc(Nc2cc(C(F)(F)F)ccn2)nc(-c2ccc(NC3CCN(C(=O)Cc4ccc(Cl)cc4)CC3)nc2)c1` [Example 4-73], the IC50 turned out to be 21 nM.
On to `Cc1cc(Nc2cc(C(F)(F)F)ccn2)nc(-c2ccc(NC3CCN(C(=O)Cc4cccc(Oc5ccccc5)c4)CC3)nc2)c1` [Example 4-74], for which the IC50 stood at 57 nM.
The figure for `Cc1cc(Nc2cc(C(F)(F)F)ccn2)nc(-c2ccc(NC3CCN(C(=O)Cc4ccccc4C(F)(F)F)CC3)nc2)c1` [Example 4-75] is 39 nM; for `Cc1cc(Nc2cc(C(F)(F)F)ccn2)nc(-c2ccc(NC3CCN(C(=O)CCOc4ccccc4)CC3)nc2)c1` [Example 4-76] it is 10 nM; for `Cc1cc(Nc2cc(C(F)(F)F)ccn2)nc(-c2ccc(NC3CCN(C(=O)Cc4cccnc4)CC3)nc2)c1` [Example 4-77] it is 1 nM.
The figure for `Cc1cc(Nc2cc(C(F)(F)F)ccn2)nc(-c2ccc(NC3CCN(C(=O)c4ccc5nc(C)sc5c4)CC3)nc2)c1` [Example 4-78] is 4 nM; for `CC(=O)Nc1ccc(C(=O)N2CCC(Nc3ccc(-c4cc(C)cc(Nc5cc(C(F)(F)F)ccn5)n4)cn3)CC2)cc1` [Example 4-79] it is 4 nM.
As for `Cc1cc(Nc2cc(C(F)(F)F)ccn2)nc(-c2ccc(NC3CCN(C(=O)COc4ccccc4)CC3)nc2)c1` [Example 4-80], the IC50 stood at 28 nM.
The figure for `Cc1cc(Nc2cc(C(F)(F)F)ccn2)nc(-c2ccc(NC3CCN(C(=O)c4ccc(-c5ccccc5)cc4)CC3)nc2)c1` [Example 4-81] is 44 nM; for `Cc1cc(Nc2cc(C(F)(F)F)ccn2)nc(-c2ccc(NC3CCN(C(=O)Cc4cccc(C#N)c4)CC3)nc2)c1` [Example 4-82] it is 3 nM.

The record behind these values is patent US9145391B2, “Bipyridylaminopyridines as Syk inhibitors” (Merck Sharp & Dohme Corp., priority 2011, dated 2015).
